Test [1] relates to human prostate cancer LNCaP cells. Nature of the test: Cytotoxic action on LNCaP cells (WST-8, 96 hr). It counts as cell-based. As to conditions: 96 hr culture. Summed up: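 Growth-inhibition format: 96 hr continuous exposure, 37° C, 5% CO2, 10% FBS/RPMI1640, WST-8 read-out. Values are IC50 against the untreated-control survival, taken from the line joining the two points around 50%.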
For orientation: Tetrazolium dyes change colour on reduction, which living cells bring about.

In a further test the target is BRD4 protein (Homo sapiens (Human), UniProt O60885). Kind of test: BRD4 protein degradation inducing action in LNCaP cells (immunofluorescence, 6 hr). The format is cell-based. As to conditions: anti-BRD4 fluorescence intensity. Summed up: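 Read-out is BRD4 immunofluorescence intensity (560/572 nm) after 6 hr compound treatment of LNCaP cells in 10% FBS/RPMI1640, with fixation, permeabilization and anti-BRD4 staining. Linear interpolation between the two concentrations flanking 50% of untreated intensity gives DC50.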

Molecules are shown by their SMILES.

The term IC50 denotes the concentration needed to halve the response being measured. The low end stands for inhibition by little substance, the high end for a need for much substance. The DC50 is the concentration at which degradation of the target reaches its halfway point. A low value points to degradation at low concentration.

As for `COC(=O)C[C@@H]1N=C(c2ccc(-c3cc(C)c(C(=O)NCc4ccc(S(=O)(=O)Nc5ccc(C)c6c(C#N)c[nH]c56)cc4)cc3F)cc2)c2c(sc(C)c2C)-n2c(C)nnc21` [Example 83, methyl [(6S)-4-{4′-[({4-[(3-cyano-4-methyl-1H-indol-7-yl)sulfamoyl]phenyl}methyl)carbamoyl]-2′-fluoro-5′-methyl[1,1′-biphenyl]-4-yl}-2,3,9-trimethyl-6H-thieno[3,2-f][1,2,4]triazolo[4,3-a][1,4]diazepin-6-yl]acetate], the IC50 in test [1] was found to be 0.33 nM. Further, it took 0.25 nM to reach half-maximal degradation at BRD4 protein (DC50).
As for `COC(=O)C[C@@H]1N=C(c2ccc(-c3ccc(C(=O)NCc4ccc(S(=O)(=O)Nc5ccc(OC)c6c(C#N)c[nH]c56)cc4)cc3)cc2)c2c(sc(C)c2C)-n2c(C)nnc21` [Example 15, methyl [(6S)-4-{4′-[({4-[(3-cyano-4-methoxy-1H-indol-7-yl)sulfamoyl]phenyl}methyl)carbamoyl][1,1′-biphenyl]-4-yl}-2,3,9-trimethyl-6H-thieno[3,2-f][1,2,4]triazolo[4,3-a][1,4]diazepin-6-yl]acetate], half-maximal inhibition in test [1] (IC50) required 0.28 nM. Also, half-maximal degradation on BRD4 protein (DC50) was put at 0.22 nM.
Turning to `COC(=O)C[C@@H]1N=C(c2ccc(-c3ccc(C(=O)NCc4ccc(S(=O)(=O)Nc5ccc(C)c6c(C#N)c[nH]c56)cc4)c(C)c3)cc2)c2c(sc(C)c2C)-n2c(C)nnc21` [Example 50, methyl [(6S)-4-{4′-[({4-[(3-cyano-4-methyl-1H-indol-7-yl)sulfamoyl]phenyl}methyl)carbamoyl]-3′-methyl[1,1′-biphenyl]-4-yl}-2,3,9-trimethyl-6H-thieno[3,2-f][1,2,4]triazolo[4,3-a][1,4]diazepin-6-yl]acetate], in test [1], half-maximal inhibition (IC50) required 0.23 nM. The same compound returned a DC50 on BRD4 protein of 0.13 nM.
Taken in the same sequence, the figures for `CCc1ccc(NS(=O)(=O)c2ccc(CCNC(=O)c3ccc(-c4ccc(C5=N[C@@H](CC(=O)OC)c6nnc(C)n6-c6sc(C)c(C)c65)cc4)c(F)c3)cc2)c2[nH]cc(C#N)c12` [Example Compound 124, methyl [(6S)-4-{4′-[(2-{4-[(3-cyano-4-ethyl-1H-indol-7-yl)sulfamoyl]phenyl}ethyl)carbamoyl]-2′-fluoro[1,1′-biphenyl]-4-yl}-2,3,9-trimethyl-6H-thieno[3,2-f][1,2,4]triazolo[4,3-a][1,4]diazepin-6-yl]acetate] were 0.27 nM and 0.095 nM.
For `COC(=O)C[C@@H]1N=C(c2ccc(-c3ccc4cc(C(=O)NCc5ccc(S(=O)(=O)Nc6ccc(C)c7c(C#N)c[nH]c67)cc5)sc4c3)cc2)c2c(sc(C)c2C)-n2c(C)nnc21` [Example 62, methyl [(6S)-4-(4-{2-[({4-[(3-cyano-4-methyl-1H-indol-7-yl)sulfamoyl]phenyl}methyl)carbamoyl]-1-benzothiophen-6-yl}phenyl)-2,3,9-trimethyl-6H-thieno[3,2-f][1,2,4]triazolo[4,3-a][1,4]diazepin-6-yl]acetate], in test [1], it took 0.97 nM to reach half-maximal inhibition (IC50). On BRD4 protein, this compound returned a DC50 of 0.64 nM.
The corresponding values for `COC(=O)C[C@@H]1N=C(c2ccc(-c3ccc(C(=O)N[C@H](C)c4ccc(S(=O)(=O)Nc5ccc(C)c6c(C#N)c[nH]c56)cc4)cc3)cc2)c2c(sc(C)c2C)-n2c(C)nnc21` [Example 26, methyl [(6S)-4-(4′-{[(1R)-1-{4-[(3-cyano-4-methyl-1H-indol-7-yl)sulfamoyl]phenyl}ethyl]carbamoyl}[1,1′-biphenyl]-4-yl)-2,3,9-trimethyl-6H-thieno[3,2-f][1,2,4]triazolo[4,3-a][1,4]diazepin-6-yl]acetate] are 0.1 nM and 0.14 nM.
In test [1], `COC(=O)C[C@@H]1N=C(c2ccc(-c3ccc(C(=O)NCCc4ccc(S(=O)(=O)Nc5ccc(C)c6c(C#N)c[nH]c56)cc4)cc3Cl)cc2)c2c(sc(C)c2C)-n2c(C)nnc21` [Example 48, methyl [(6S)-4-{2′-chloro-4′-[(2-{4-[(3-cyano-4-methyl-1H-indol-7-yl)sulfamoyl]phenyl}ethyl)carbamoyl][1,1′-biphenyl]-4-yl}-2,3,9-trimethyl-6H-thieno[3,2-f][1,2,4]triazolo[4,3-a][1,4]diazepin-6-yl]acetate] came in with an IC50 of 0.49 nM. On BRD4 protein, this compound showed a DC50 of 0.3 nM.
In test [1], `COC(=O)C[C@@H]1N=C(c2ccc(-c3ccc(C(=O)NCCc4ccc(S(=O)(=O)Nc5ccc(C)c6c(C#N)c[nH]c56)cc4)c(F)c3)cc2)c2c(sc(C)c2C)-n2c(C)nnc21` [Example 40, methyl [(6S)-4-{4′-[(2-{4-[(3-cyano-4-methyl-1H-indol-7-yl)sulfamoyl]phenyl}ethyl)carbamoyl]-3′-fluoro[1,1′-biphenyl]-4-yl}-2,3,9-trimethyl-6H-thieno[3,2-f][1,2,4]triazolo[4,3-a][1,4]diazepin-6-yl]acetate] registered an IC50 of 0.42 nM. At BRD4 protein, this compound registered a DC50 of 0.19 nM.
For `CCc1ccc(NS(=O)(=O)c2ccc(CNC(=O)c3ccc(-c4ccc(C5=N[C@@H](CC(=O)OC)c6nnc(C)n6-c6sc(C)c(C)c65)cc4)cc3C)cc2)c2[nH]cc(C#N)c12` [Example Compound 114, methyl [(6S)-4-{4′-[({4-[(3-cyano-4-ethyl-1H-indol-7-yl)sulfamoyl]phenyl}methyl)carbamoyl]-3′-methyl[1,1′-biphenyl]-4-yl}-2,3,9-trimethyl-6H-thieno[3,2-f][1,2,4]triazolo[4,3-a][1,4]diazepin-6-yl]acetate], it took 0.34 nM to reach half-maximal inhibition in test [1] (IC50). The compound further came in with a 50% degradation concentration (DC50) on BRD4 protein of 0.28 nM.
The corresponding values for `CCc1ccc(NS(=O)(=O)c2ccc(CNC(=O)c3ccc(-c4ccc(C5=N[C@@H](CC(=O)OC)c6nnc(C)n6-c6sc(C)c(C)c65)cc4)cc3F)cc2)c2[nH]cc(C#N)c12` [Example 112, methyl [(6S)-4-{4′-[({4-[(3-cyano-4-ethyl-1H-indol-7-yl)sulfamoyl]phenyl}methyl)carbamoyl]-3′-fluoro[1,1′-biphenyl]-4-yl}-2,3,9-trimethyl-6H-thieno[3,2-f][1,2,4]triazolo[4,3-a][1,4]diazepin-6-yl]acetate] are 0.44 nM and 0.25 nM.
In test [1], `COC(=O)C[C@@H]1N=C(c2ccc(-c3ccc(C(=O)NCc4ccc(S(=O)(=O)Nc5ccc(C)c6c(C#N)c[nH]c56)c(F)c4)cc3)cc2)c2c(sc(C)c2C)-n2c(C)nnc21` [Example 25, methyl [(6S)-4-{4′-[({4-[(3-cyano-4-methyl-1H-indol-7-yl)sulfamoyl]-3-fluorophenyl}methyl)carbamoyl][1,1′-biphenyl]-4-yl}-2,3,9-trimethyl-6H-thieno[3,2-f][1,2,4]triazolo[4,3-a][1,4]diazepin-6-yl]acetate] had an IC50 of 0.24 nM. In addition, the half-maximal degradation concentration (DC50) at BRD4 protein amounted to 0.16 nM.
The corresponding values for `Cc1sc2c(c1C)C(c1ccc(-c3cnc(C(=O)NCc4ccc(S(=O)(=O)Nc5ccc(C)c6c(C#N)c[nH]c56)cc4)cn3)cc1)=N[C@@H](CC(=O)OC(C)(C)C)c1nnc(C)n1-2` [Example Compound 148, t-butyl [(6S)-4-(4-{5-[({4-[(3-cyano-4-methyl-1H-indol-7-yl)sulfamoyl]phenyl}methyl)carbamoyl]pyrazin-2-yl}phenyl)-2,3,9-trimethyl-6H-thieno[3,2-f][1,2,4]triazolo[4,3-a][1,4]diazepin-6-yl]acetate] are 0.2 nM and 0.042 nM.
`COC(=O)C[C@@H]1N=C(c2ccc(-c3ccc(C(=O)N[C@H](C)c4ccc(S(=O)(=O)Nc5ccc(C)c6c(C#N)c[nH]c56)cc4)c(F)c3)cc2)c2c(sc(C)c2C)-n2c(C)nnc21` [Example 69, methyl [(6S)-4-(4′-{[(1R)-1-{4-[(3-cyano-4-methyl-1H-indol-7-yl)sulfamoyl]phenyl}ethyl]carbamoyl}-3′-fluoro[1,1′-biphenyl]-4-yl)-2,3,9-trimethyl-6H-thieno[3,2-f][1,2,4]triazolo[4,3-a][1,4]diazepin-6-yl]acetate] had an IC50 in test [1] of 0.12 nM. On BRD4 protein, this compound gave a DC50 of 0.056 nM.
In turn, `COC(=O)C[C@@H]1N=C(c2ccc(-c3cnc(C(=O)NCc4ccc(S(=O)(=O)Nc5ccc(C)c6c(C#N)c[nH]c56)cc4)cn3)cc2)c2c(sc(C)c2C)-n2c(C)nnc21` [Example 65, methyl [(6S)-4-(4-{5-[({4-[(3-cyano-4-methyl-1H-indol-7-yl)sulfamoyl]phenyl}methyl)carbamoyl]pyrazin-2-yl}phenyl)-2,3,9-trimethyl-6H-thieno[3,2-f][1,2,4]triazolo[4,3-a][1,4]diazepin-6-yl]acetate] registered a concentration for half-maximal inhibition (IC50) in test [1] of 0.071 nM. The same compound came in with a DC50 on BRD4 protein of 0.036 nM.
The corresponding values for `Cc1cc(-c2ccc(C3=N[C@@H](CC(=O)OC(C)(C)C)c4nnc(C)n4-c4sc(C)c(C)c43)cc2)ccc1C(=O)NCc1ccc(S(=O)(=O)Nc2ccc(C)c3c(C#N)c[nH]c23)cc1` [Example Compound 141, t-butyl [(6S)-4-{4′-[({4-[(3-cyano-4-methyl-1H-indol-7-yl)sulfamoyl]phenyl}methyl)carbamoyl]-3′-methyl[1,1′-biphenyl]-4-yl}-2,3,9-trimethyl-6H-thieno[3,2-f][1,2,4]triazolo[4,3-a][1,4]diazepin-6-yl]acetate] are 0.92 nM and 0.47 nM.
Taken in the same sequence, the figures for `CCc1ccc(NS(=O)(=O)c2ccc(CCNC(=O)c3ccc(-c4ccc(C5=N[C@@H](CC(=O)OC)c6nnc(C)n6-c6sc(C)c(C)c65)cc4)cc3)cc2)c2[nH]cc(C#N)c12` [Example Compound 128, methyl [(6S)-4-{4′-[(2-{4-[(3-cyano-4-ethyl-1H-indol-7-yl)sulfamoyl]phenyl}ethyl)carbamoyl][1,1′-biphenyl]-4-yl}-2,3,9-trimethyl-6H-thieno[3,2-f][1,2,4]triazolo[4,3-a][1,4]diazepin-6-yl]acetate] were 0.074 nM and 0.039 nM.

Source of the values: US11890288B2, “Sulfonamide or sulfinamide compound having effect of inducing BRD4 protein degradation and pharmaceutical use thereof” (MITSUBISHI TANABE PHARMA CORPORATION, priority 2020, dated 2024).
